Assay results as given in US20110003689A1, “USE OF POLYMERIC GUANIDINE DERIVATIVES FOR THE CONTROL OF UNWANTED MICROORGANISMS IN CROP PROTECTION” (AKA TECHNOLOGY GMBH, priority 2007, published 2011).
Where a name gives a salt, the structure may show the parent alone. Read-outs that look alike come from different tables or passages of the source.

Key:
[1] = tested on: Plasmopara viticola; assay: Plasmopara test (grapevine)/protective, combinations (Example K); assay type: in vivo
[2] = tested on: Alternaria solani; assay: Alternaria test (tomato)/protective, combinations (Example M); assay type: in vivo
[3] = tested on: Blumeria graminis f. sp. hordei; assay: Blumeria graminis test (barley)/curative (Example P); assay type: in vivo; conditions: 168 h, read-out: Efficacy in % found
[4] = tested on: Puccinia triticina; assay: Puccinia triticina test (wheat)/curative (Example T); assay type: in vivo
[5] = tested on: Blumeria graminis f. sp. hordei; assay: Blumeria graminis test (barley)/protective (Example O); assay type: in vivo; conditions: 125 ppm
Procedure: [table] […] Evaluation is carried out 7 days after inoculation.

[6] = tested on: Venturia inaequalis; assay: Venturia test (apple)/protective, combinations (Example L)
Procedure: After the spray coating has dried on, the plants are inoculated with an aqueous conidia suspension of the apple scab pathogen Venturia inaequalis and then remain in an incubation cabin at about 20° C. and 100% relative atmospheric humidity for 1 day. The plants are then placed in a greenhouse at about 21° C. and a relative atmospheric humidity of about 90%. Evaluation is carried out 10 days after inoculation.

[7] = tested on: Phytophthora infestans; assay type: in vivo
[8] = tested on: Leptosphaeria nodorum; assay: Leptosphaeria nodorum test (wheat)/curative (Example R); assay type: in vivo; conditions: 62.5 ppm
[9] = tested on: Botrytis cinerea; assay: Botrytis test (bean)/protective (Example N)
Procedure: After the spray coating has dried on, 2 small pieces of agar colonized by Botrytis cinerea are placed onto each leaf. The inoculated plants are placed in a dark chamber at about 20° C. and 100% relative atmospheric humidity. 2 days after the inoculation, the size of the infected areas on the leaves is evaluated.

[10] = tested on: Leptosphaeria nodorum; assay: Leptosphaeria nodorum test (wheat)/protective (Example Q); assay type: in vivo; conditions: 62.5 ppm
[11] = tested on: Pyrenophora teres; assay: Pyrenophora teres test (barley)/curative (Example U); assay type: in vivo
[12] = tested on: Fusarium graminearum; assay type: in vivo; conditions: 500 ppm
[13] = Alternaria solani, 72 h, read-out: Efficacy in % found

CCO[PH](=O)O [(G-86) fosetyl-Al, fosetyl-Al]
Efficacy in % found ([1]; 200 ppm): 0%

Cc1nn(C)c(F)c1C(=O)Nc1ccccc1C(C)CC(C)C (centres unmarked) [(C-14), N-[2-(1,3-dimethylbutyl)phenyl]-5-fluoro-1,3-dimethyl-1H-pyrazole-4-carboxamide]
pest or weed control at 2.5 ppm [2, 13]: 0% | pest or weed control at 250 ppm [3]: 67%

CC(C)C1C2CCC1c1c(NC(=O)c3cn(C)nc3C(F)F)cccc12 (centres unmarked) [(C-41) isopyrazam, 3-(difluoromethyl)-1-methyl-N-[1,2,3,4-tetrahydro-9-(1-methylethyl)-1,4-methanonaphthalen-5-yl]-1H-pyrazole-4-carboxamide]
pest or weed control at 500 ppm [3]: 78%

CON=C(C(=O)OC)c1ccccc1CON=C(C)c1cccc(C(F)(F)F)c1 [(D-15) trifloxystrobin, trifloxystrobin]
pest or weed control at 5 ppm [2, 13]: 40% | Efficacy in % found ([4]; 500 ppm): 83%

Cn1cc(C(=O)Nc2ccc(F)cc2-c2ccc(Cl)c(Cl)c2)c(C(F)F)n1 [(C-2) bixafen, N-(3′,4′-dichloro-5-fluoro-1,1′-biphenyl-2-yl)-3-(difluoromethyl)-1-methyl-1H-pyrazole-4-carboxamide]
pest or weed control at 1.25 ppm ([2]; Alternaria solani, 72 h, 1.25 ppm, read-out: Efficacy in % found): 49% | pest or weed control at 500 ppm ([3]; 500 ppm): 63%

Cn1cc(C(=O)Nc2ccccc2OC(F)(F)C(F)F)c(C(F)F)n1 [(C-19), 3-(difluoromethyl)-1-methyl-N-[2-(1,1,2,2-tetrafluoroethoxy)phenyl]-1H-pyrazole-4-carboxamide]
Efficacy in % found [5]: 78% | Efficacy in % found ([6]; 5 ppm): 35%

propineb [(F-24) propineb]
Efficacy in % found ([7]; 100 ppm): 15% | Efficacy in % found ([1]; 100 ppm): 51%

CC(C)[C@H](NC(=O)O)C(=O)N[C@H](C)c1nc2ccc(F)cc2s1 [(G-15) benthiavalicarb, benthiavalicarb]
Efficacy in % found ([7]; 0.5 ppm): 23%

CO/C=C(/C(=O)OC)c1ccccc1Oc1cc(Oc2ccccc2C#N)ncn1 [(D-4) azoxystrobin, azoxystrobin]
Efficacy in % found [8]: 60%

O=C(NCc1ncc(C(F)(F)F)cc1Cl)c1c(Cl)cccc1Cl [(E-6) fluopicolide, fluopicolide]
Efficacy in % found ([7]; 2 ppm): 9%

O=[N+]([O-])c1cc(C(F)(F)F)c(Cl)c([N+](=O)[O-])c1Nc1ncc(C(F)(F)F)cc1Cl [(G-64) fluazinam, fluazinam]
Efficacy in % found ([1]; 5 ppm): 0%

CCCCCCCCCCCCCN1CC(C)OC(C)C1 (centres unmarked) [(B-52) tridemorph, tridemorph]
pest or weed control at 250 ppm [3]: 75%

Cc1cc(C)nc(Nc2ccccc2)n1 [(G-10) pyrimethanil, pyrimethanil]
Efficacy in % found ([9]; 12.5 ppm): 13%

COc1ccc(C(=CC(=O)N2CCOCC2)c2ccc(Cl)cc2)cc1OC [(G-16) dimethomorph, dimethomorph]
Efficacy in % found ([1]; 1 ppm): 0%

O=C(Nc1ccccc1-c1ccc(Cl)cc1)c1cccnc1Cl [(C-3) boscalid, boscalid]
Efficacy in % found ([6]; 5 ppm): 36%

COC(=O)N(OC)c1ccccc1COc1ccn(-c2ccc(Cl)cc2)n1 [(D-13) pyraclostrobin, pyraclostrobin]
Efficacy in % found [10]: 94% | pest or weed control at 5 ppm [2, 13]: 49%

O=C(NCCc1ncc(C(F)(F)F)cc1Cl)c1ccccc1C(F)(F)F [(C-6) fluopyram, N-{2-[3-chloro-5-(trifluoromethyl)pyridin-2-yl]ethyl}-2-(trifluoromethyl)benzamide]
pest or weed control at 2.5 ppm [2, 13]: 23%

OP(O)O [(G-101) phosphorous acid, phosphorous acid]
Efficacy in % found ([1]; 400 ppm): 30%

CC1(C(=O)Nc2ccc(O)c(Cl)c2Cl)CCCCC1 [(B-16) fenhexamid, fenhexamid]
Efficacy in % found ([9]; 2.5 ppm): 0%

CCNC(=O)NC(=O)/C(C#N)=N/OC [(G-73) cymoxanil, cymoxanil]
Efficacy in % found ([1]; 50 ppm): 0%

Cc1ccc(C(C)NC(=O)[C@@H](NC(=O)OC(C)C)C(C)C)cc1 (some centres unmarked) [(G-18) iprovalicarb, iprovalicarb]
Efficacy in % found ([7]; 2 ppm): 30% | Efficacy in % found ([1]; 0.5 ppm): 0%

CC(C)CC(C)c1sccc1NC(=O)c1cn(C)nc1C(F)(F)F (centres unmarked) [(C-12) penthiopyrad, penthiopyrad]
Efficacy in % found ([6]; 5 ppm): 60% | pest or weed control at 250 ppm [3]: 88%

COCC(=O)N(c1c(C)cccc1C)[C@H](C)C(=O)OC [(G-55) metalaxyl-M, metalaxyl-M]
Efficacy in % found ([7]; 2.5 ppm): 10%

mancozeb [(F-20) mancozeb]
Efficacy in % found ([7]; 25 ppm): 20% | Efficacy in % found ([1]; 100 ppm): 5% | Efficacy in % found ([2]; 50 ppm): 31%

Fc1ccc([C@]2(Cn3cncn3)O[C@H]2c2ccccc2Cl)cc1 (racemic) [(B-12) epoxiconazole, epoxiconazole]
Efficacy in % found ([11]; 500 ppm): 78%

OC(Cc1ccccc1Cl)(Cn1nc[nH]c1=S)C1(Cl)CC1 (centres unmarked) [(B-41) prothioconazole, prothioconazole]
Efficacy in % found ([11]; 125 ppm): 78% | pest or weed control at 5 ppm [2, 13]: 1%

CCCOC(=O)NCCCN(C)C [(G-35) propamocarb hydrochloride, propamocarb hydrochloride]
Efficacy in % found ([7]; 100 ppm): 0% | Efficacy in % found ([1]; 400 ppm): 0%

CC(C)(C)C(O)(CCc1ccc(Cl)cc1)Cn1cncn1 (centres unmarked) [(B-47) tebuconazole, tebuconazole]
Efficacy in % found ([11]; 250 ppm): 60% | pest or weed control at 5 ppm [2, 13]: 29%

C=CCOC(Cn1ccnc1)c1ccc(Cl)cc1Cl (centres unmarked) [(B-26) imazalil, imazalil]
Efficacy in % found ([4]; 500 ppm): 83%

CC(C)NC(=O)N1CC(=O)N(c2cc(Cl)cc(Cl)c2)C1=O [(G-31) iprodione, iprodione]
Efficacy in % found ([9]; 12.5 ppm): 11%

CC(C)(C)C(O)C(Oc1ccc(-c2ccccc2)cc1)n1cncn1 (centres unmarked) [(B-3) bitertanol, bitertanol]
Efficacy in % found ([6]; 2.5 ppm): 63% | pest or weed control at 500 ppm ([3]; 500 ppm): 63%

CCCN(CCOc1c(Cl)cc(Cl)cc1Cl)C(=O)n1ccnc1 [(B-39) prochloraz, prochloraz]
Efficacy in % found [12]: 63%

N#Cc1c(Cl)c(Cl)c(Cl)c(C#N)c1Cl [(F-4) chlorothalonil, chlorothalonil]
Efficacy in % found ([11]; 1000 ppm): 30%

CSC1=N[C@@](C)(c2ccccc2)C(=O)N1Nc1ccccc1 [(D-2) fenamidone, fenamidone]
Efficacy in % found ([1]; 1 ppm): 19%

CO/N=C(/C1=NOCCO1)c1ccccc1Oc1ncnc(Oc2ccccc2Cl)c1F [(D-8) fluoxastrobin, fluoxastrobin]
pest or weed control at 5 ppm [2, 13]: 35% | pest or weed control at 500 ppm ([3]; 500 ppm): 78%

N#Cc1c[nH]cc1-c1cccc2c1OC(F)(F)O2 [(G-60) fludioxonil, fludioxonil]
Efficacy in % found ([11]; 250 ppm): 78%

CC1COC(Cn2cncn2)(c2ccc(Oc3ccc(Cl)cc3)cc2Cl)O1 (centres unmarked) [(B-7) difenoconazole, difenoconazole]
pest or weed control at 250 ppm [3]: 78%

CCCN(CC)CC1COC2(CCC(C(C)(C)C)CC2)O1 (centres unmarked) [(B-46) spiroxamine, spiroxamine]
Efficacy in % found ([4]; 1000 ppm): 40%
